Measurements published in paper PMC5531278 (Bioorganic & medicinal chemistry letters, 2016).
Where two headings read alike, the source gives them in different places.

Assays:
[1] = test system: GL261-luc2; experiment: MTT cell viability assay in GL261-luc2; format: cell-based; conditions: Mus musculus, 72 h, read-out: MTT assay IC50
[2] = Bidirectional Caco-2 cell monolayer permeability; conditions: human, Caco-2, pH 6.5
[3] = test system: Caco-2 cell monolayer; experiment: Bidirectional Caco-2 cell monolayer permeability; conditions: based on the Caco-2 permeability study
[4] = test system: CD-1 mice; conditions: mouse, in vivo
[5] = in vitro; conditions: mouse
[6] = in vitro; conditions: human, microsomes

O=C(O)c1cc2ccc(N(Cc3ccccc3)Cc3ccccc3)cc2oc1=O [4a, 7-(dibenzylamino)-2-oxo-2H-chromene-3-carboxylic acid]
IC50 [1]: > 250 µM
Papp A→B at 10 µM [2]: 32 ×10⁻⁶ cm/s
Papp B→A at 10 µM [2]: 6.4 ×10⁻⁶ cm/s
Absorption [3]: ~ 30%
Body weights compared to the control group ([4]; ip, 20 mg/kg): no significant difference in body weights
Visible toxic effects or mortality ([4]; ip, 20 mg/kg): did not show any visible toxic effects or mortality
Body weights compared to the control group ([4]; po, 100 mg/kg): no significant difference in body weights
Visible toxic effects or mortality ([4]; po, 100 mg/kg): did not show any visible toxic effects or mortality
microsomal CLint at 0.1 μM ([5]; microsomes): < 116 µL/min/mg
half-life at 0.1 μM ([5]; microsomes, Half-life Trial 1): 1.51 h
half-life at 0.1 μM ([5]; microsomes, Half-life Trial 2): 1.23 h
microsomal CLint at 0.1 μM [6]: < 116 µL/min/mg

O=C(O)c1cc2ccc(N3CCCC3)cc2oc1=O [4b]
IC50 [1]: > 250 µM

CCCN(CCC)c1ccc2cc(C(=O)O)c(=O)oc2c1 [4c]
IC50 [1]: > 250 µM

C=CCN(CC=C)c1ccc2cc(C(=O)O)c(=O)oc2c1 [4d]
IC50 [1]: > 250 µM

C#CCN(CC#C)c1ccc2cc(C(=O)O)c(=O)oc2c1 [4e]
IC50 [1]: > 250 µM

CC(C)NCC(O)COc1cccc2ccccc12 (centres unmarked) [Propranolol]
half-life at 0.1 μM ([5]; liver microsomes, Half-life Trial 2, mouse liver microsomes, 0.1 μM): 0.158 h
